Reference: ChEMBL document CHEMBL1201862, “PubChem BioAssay data set” (2004)
Active and inactive are the calls of the source.

Experiments:
[1] = molecular target: Peroxisome proliferator-activated receptor gamma/Nuclear receptor corepressor 2 (Homo sapiens, UniProt P37231+Q9Y618); assay: Counterscreen for NR2E3 inverse agonists: TR-FRET-based biochemical high throughput dose response assay to identify inverse agonists of the interaction between peroxisome proliferator-activated receptor gamma (PPARg) and nuclear receptor co-repressor 2 (NCOR2).; type: functional
Sequence of Peroxisome proliferator-activated receptor gamma/Nuclear receptor corepressor 2 (P37231 whole entry): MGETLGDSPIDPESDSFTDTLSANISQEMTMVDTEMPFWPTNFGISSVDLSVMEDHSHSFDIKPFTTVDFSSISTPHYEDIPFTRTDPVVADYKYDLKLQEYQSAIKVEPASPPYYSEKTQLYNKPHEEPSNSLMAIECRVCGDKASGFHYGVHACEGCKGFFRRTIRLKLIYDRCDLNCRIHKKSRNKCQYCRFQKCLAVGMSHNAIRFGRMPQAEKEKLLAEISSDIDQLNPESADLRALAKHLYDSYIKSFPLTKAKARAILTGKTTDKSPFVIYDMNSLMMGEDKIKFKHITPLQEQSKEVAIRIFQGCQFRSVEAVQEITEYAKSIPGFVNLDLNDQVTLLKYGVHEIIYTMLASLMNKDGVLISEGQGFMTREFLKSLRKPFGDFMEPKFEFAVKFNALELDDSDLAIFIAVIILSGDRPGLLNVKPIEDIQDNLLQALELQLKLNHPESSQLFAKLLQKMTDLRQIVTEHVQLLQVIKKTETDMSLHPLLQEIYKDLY
Sequence of Peroxisome proliferator-activated receptor gamma/Nuclear receptor corepressor 2 (Q9Y618 whole entry): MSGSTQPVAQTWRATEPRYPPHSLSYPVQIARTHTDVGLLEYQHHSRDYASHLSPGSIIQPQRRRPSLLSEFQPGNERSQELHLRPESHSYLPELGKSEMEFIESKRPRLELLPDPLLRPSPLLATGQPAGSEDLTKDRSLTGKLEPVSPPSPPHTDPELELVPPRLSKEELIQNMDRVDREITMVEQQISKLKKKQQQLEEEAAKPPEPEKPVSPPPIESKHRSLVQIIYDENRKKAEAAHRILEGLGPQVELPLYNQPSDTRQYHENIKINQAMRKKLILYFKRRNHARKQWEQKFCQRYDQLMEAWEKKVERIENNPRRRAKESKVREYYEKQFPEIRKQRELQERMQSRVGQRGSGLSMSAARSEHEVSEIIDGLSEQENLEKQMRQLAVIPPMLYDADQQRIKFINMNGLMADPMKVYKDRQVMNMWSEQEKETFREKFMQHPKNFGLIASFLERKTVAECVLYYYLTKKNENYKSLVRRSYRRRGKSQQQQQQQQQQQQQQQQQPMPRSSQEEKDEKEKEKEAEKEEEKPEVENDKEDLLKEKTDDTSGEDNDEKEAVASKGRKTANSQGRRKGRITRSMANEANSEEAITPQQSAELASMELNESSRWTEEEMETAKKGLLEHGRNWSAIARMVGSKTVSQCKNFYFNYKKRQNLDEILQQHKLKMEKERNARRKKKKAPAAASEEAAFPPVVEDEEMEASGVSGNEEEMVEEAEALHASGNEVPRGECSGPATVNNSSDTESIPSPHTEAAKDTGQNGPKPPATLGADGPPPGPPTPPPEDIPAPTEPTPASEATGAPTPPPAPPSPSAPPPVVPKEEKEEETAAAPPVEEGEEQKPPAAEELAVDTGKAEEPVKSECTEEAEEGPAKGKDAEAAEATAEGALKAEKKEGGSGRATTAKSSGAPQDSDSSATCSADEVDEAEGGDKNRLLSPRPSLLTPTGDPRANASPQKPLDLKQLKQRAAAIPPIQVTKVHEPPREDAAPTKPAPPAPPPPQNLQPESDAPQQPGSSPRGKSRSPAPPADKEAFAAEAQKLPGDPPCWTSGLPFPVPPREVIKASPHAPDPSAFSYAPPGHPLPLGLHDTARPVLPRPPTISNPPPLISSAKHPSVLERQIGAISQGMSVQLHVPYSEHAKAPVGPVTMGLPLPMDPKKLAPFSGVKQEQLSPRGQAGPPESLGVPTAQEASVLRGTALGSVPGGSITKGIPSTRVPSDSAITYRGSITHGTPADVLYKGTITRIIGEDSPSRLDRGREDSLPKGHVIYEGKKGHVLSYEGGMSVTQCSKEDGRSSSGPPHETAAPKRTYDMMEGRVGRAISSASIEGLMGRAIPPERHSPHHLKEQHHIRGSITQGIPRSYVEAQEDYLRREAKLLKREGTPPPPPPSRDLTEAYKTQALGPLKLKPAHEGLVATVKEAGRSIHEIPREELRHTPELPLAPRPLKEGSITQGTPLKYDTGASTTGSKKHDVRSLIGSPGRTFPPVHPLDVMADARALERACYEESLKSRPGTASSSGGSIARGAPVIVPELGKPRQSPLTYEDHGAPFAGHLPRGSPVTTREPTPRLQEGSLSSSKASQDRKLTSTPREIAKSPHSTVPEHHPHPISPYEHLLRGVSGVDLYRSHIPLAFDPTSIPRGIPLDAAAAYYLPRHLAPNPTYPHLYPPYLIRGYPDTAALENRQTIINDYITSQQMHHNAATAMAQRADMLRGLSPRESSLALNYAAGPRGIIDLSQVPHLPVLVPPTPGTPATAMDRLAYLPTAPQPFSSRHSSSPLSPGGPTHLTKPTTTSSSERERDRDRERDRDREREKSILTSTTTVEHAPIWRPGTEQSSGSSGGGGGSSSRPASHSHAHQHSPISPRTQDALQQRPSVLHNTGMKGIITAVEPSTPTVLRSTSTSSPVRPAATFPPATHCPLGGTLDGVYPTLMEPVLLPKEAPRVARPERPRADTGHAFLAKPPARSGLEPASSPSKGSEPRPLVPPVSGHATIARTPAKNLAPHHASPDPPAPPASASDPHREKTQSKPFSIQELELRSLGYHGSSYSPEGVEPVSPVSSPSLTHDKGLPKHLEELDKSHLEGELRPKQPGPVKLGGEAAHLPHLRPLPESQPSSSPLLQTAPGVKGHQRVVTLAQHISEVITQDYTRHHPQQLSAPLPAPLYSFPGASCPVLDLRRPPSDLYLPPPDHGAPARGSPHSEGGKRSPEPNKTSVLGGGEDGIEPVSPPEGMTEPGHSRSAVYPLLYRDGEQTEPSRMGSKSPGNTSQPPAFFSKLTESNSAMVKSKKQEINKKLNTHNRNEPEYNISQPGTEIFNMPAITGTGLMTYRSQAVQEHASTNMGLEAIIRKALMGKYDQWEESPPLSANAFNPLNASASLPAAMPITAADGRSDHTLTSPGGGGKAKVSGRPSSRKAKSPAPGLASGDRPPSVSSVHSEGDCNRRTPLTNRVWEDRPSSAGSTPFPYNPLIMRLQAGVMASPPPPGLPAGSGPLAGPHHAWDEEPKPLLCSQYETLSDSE

[2] = molecular target: Photoreceptor-specific nuclear receptor (Homo sapiens, UniProt Q9Y5X4); assay: NR2E3 inverse agonists, dose response, biochemical, TR-FRET (AID 463256); type: functional
Sequence of Photoreceptor-specific nuclear receptor (Q9Y5X4 whole entry): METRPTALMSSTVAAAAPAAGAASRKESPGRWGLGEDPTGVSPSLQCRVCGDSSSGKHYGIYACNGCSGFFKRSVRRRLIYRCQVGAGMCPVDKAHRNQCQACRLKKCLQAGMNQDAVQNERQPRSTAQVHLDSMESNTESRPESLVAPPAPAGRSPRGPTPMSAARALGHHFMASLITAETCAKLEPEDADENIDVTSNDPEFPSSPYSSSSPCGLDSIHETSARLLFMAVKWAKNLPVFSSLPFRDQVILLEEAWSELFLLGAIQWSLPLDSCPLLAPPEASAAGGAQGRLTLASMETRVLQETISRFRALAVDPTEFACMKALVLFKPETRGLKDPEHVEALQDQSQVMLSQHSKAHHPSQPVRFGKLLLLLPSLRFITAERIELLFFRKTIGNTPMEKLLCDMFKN

[3] = molecular target: Protein Tat (Human immunodeficiency virus type 1 group M subtype B (isolate HXB2)(HIV-1), UniProt P04608); type: functional;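 note: tat binding to TAR RNA read out by fluorescence polarization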
Sequence of Protein Tat (P04608 whole entry): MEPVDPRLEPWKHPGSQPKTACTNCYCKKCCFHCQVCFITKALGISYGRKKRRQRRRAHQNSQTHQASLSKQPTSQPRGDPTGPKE

[4] = inhibitors of intracellular T. cruzi replication, confirmation, NIH3T3 host cells, beta-gal luminescence (AID 2044); type: functional, cell-based;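 note: intracellular parasites grown in NIH/3T3 mouse fibroblasts as host cells; luminescent beta-galactosidase reporter signal from transgenic T. cruzi replicating inside host cells; inhibitors lower the luminescence signal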
[5] = cytotoxicity toward NIH3T3 fibroblasts, dose response, counter-screen, cell-based, ATP luminescence, mouse fibroblasts (AID 2010); type: functional;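 note: cells exposed to compound for about 90 hours before reading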
[6] = THP-1 cell cytotoxicity, dose response, cytotoxicity control for Vif-APOBEC3G degradation inhibitor project, THP-1 cells (AID 1117359); type: functional; settings: Human immunodeficiency virus 1, THP-1
[7] = cells
[8] = molecular target: T1, Tyrosine-protein phosphatase non-receptor type 7 (Homo sapiens, UniProt P35236); assay: inhibitors of human HePTP phosphatase, […], biochemical, absorbance, leukemia target (AID 521); type: functional
T1 sequence (P35236 whole entry): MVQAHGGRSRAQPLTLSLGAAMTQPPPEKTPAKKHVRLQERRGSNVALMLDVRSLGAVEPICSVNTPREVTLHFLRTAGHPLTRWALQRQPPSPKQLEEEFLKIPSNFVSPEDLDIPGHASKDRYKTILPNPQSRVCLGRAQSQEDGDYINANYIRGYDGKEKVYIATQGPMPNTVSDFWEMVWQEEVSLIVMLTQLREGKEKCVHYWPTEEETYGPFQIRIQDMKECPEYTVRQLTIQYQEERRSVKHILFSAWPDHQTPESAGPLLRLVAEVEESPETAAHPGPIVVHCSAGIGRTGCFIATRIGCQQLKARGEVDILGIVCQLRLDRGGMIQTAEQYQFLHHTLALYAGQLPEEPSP

[9] = molecular target: 26S proteasome non-ATPase regulatory subunit 14 (Homo sapiens, UniProt O00487); assay: inhibition of proteasome subunit RPN11 – biochemical, fluorescence polarization, uHTS hits, confirmation (AID 602368); type: functional
Sequence of 26S proteasome non-ATPase regulatory subunit 14 (O00487 whole entry): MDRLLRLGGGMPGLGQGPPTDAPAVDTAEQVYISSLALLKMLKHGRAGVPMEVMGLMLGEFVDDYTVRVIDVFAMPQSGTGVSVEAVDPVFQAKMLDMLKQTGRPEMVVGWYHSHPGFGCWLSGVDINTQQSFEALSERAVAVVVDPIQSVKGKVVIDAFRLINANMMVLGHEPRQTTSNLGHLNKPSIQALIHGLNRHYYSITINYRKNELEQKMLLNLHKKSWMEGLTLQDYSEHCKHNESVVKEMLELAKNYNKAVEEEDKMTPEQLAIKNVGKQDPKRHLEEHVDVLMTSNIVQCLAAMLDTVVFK

[10] = molecular target: 72 kDa type IV collagenase (Homo sapiens, UniProt P08253); assay: Dose Response validation of uHTS RPN11 inhibitor hits using a MMP-2 Fluorescence assay.; type: functional
Sequence of 72 kDa type IV collagenase (P08253 whole entry): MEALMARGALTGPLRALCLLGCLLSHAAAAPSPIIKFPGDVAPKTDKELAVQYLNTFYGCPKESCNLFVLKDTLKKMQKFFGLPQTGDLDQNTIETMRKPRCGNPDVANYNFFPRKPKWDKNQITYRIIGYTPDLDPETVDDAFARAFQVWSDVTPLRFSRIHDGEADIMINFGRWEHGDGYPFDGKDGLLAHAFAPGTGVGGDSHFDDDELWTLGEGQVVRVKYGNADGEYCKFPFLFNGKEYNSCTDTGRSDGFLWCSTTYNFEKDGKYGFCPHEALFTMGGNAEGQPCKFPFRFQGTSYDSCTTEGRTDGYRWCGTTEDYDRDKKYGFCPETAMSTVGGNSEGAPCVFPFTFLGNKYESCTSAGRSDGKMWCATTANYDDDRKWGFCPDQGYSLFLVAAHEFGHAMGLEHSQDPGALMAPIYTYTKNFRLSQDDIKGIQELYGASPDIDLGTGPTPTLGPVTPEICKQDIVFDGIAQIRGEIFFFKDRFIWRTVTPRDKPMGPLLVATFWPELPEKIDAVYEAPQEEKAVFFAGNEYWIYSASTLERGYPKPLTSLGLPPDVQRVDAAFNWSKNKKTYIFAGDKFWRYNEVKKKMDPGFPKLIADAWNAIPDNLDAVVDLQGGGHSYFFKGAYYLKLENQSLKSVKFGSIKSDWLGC

[11] = molecular target: Prothrombin (Bos taurus, UniProt P00735); assay: thrombin inhibition, dose response, biochemical, fluorescence polarization, uHTS hits (AID 602369); type: functional
[12] = Luminescence Cell-Based Dose Response to Identify Activators of 5'UTR Stem-Loop Driven Prion Protein mRNA Translation in H4-C Neuroglioblastoma Cells. [Related pubchem assays: 1829 (Project Summary), 1814 (Primary HTS)]; type: functional
[13] = Luminescence Cell-Based Dose Confirmation HTS to Identify Activators of 5'UTR Stem-Loop Driven Alpha-Synuclein mRNA Translation in H4 Neuroglioblastoma Cells. [Related pubchem assays: 1829 (Project Summary), 1814 (Primary HTS)]; type: functional
[14] = Luminescence Cell-Based Dose Response HTS to Identify Activators of Luciferase Translation or Activity in H4 […] Cells. [Related pubchem assays: 1829 (Project Summary), 1814 (Primary HTS)]; type: functional
[15] = system: H4; assay: Luminescence Cell-Based Dose Response HTS to Identify Activators of 5'UTR Stem-Loop Driven Prion Protein mRNA Translation in H4 Neuroglioblastoma Cells. [Related pubchem assays: 1829 (Project Summary), 1814 (Primary HTS)]; type: functional; settings: Homo sapiens
[16] = Luminescence Cell-Based Dose Response to Identify Activators of Luciferase Translation or Activity in H4-C Neuroglioblastoma Cells. [Related pubchem assays: 1829 (Project Summary), 1814 (Primary HTS)]; type: functional
[17] = Luminescence Cell-Based Dose Confirmation to Identify Activators of 5'UTR Stem-Loop Driven Alpha-Synuclein mRNA Translation in H4 Neuroglioblastoma Cells. [Related pubchem assays: 1829 (Project Summary), 1814 (Primary HTS)]; type: functional
[18] = system: HeLa; assay: HeLa cell cytotoxicity, dose response, cytotoxicity control for MITF activator project, CellTiter-Glo luminescence, cherry-pick samples (AID 540259); type: functional, cell-based; settings: Homo sapiens
[19] = molecular target: T2, Protein skinhead-1 (Caenorhabditis elegans, UniProt P34707); type: functional
T2 sequence (P34707 whole entry): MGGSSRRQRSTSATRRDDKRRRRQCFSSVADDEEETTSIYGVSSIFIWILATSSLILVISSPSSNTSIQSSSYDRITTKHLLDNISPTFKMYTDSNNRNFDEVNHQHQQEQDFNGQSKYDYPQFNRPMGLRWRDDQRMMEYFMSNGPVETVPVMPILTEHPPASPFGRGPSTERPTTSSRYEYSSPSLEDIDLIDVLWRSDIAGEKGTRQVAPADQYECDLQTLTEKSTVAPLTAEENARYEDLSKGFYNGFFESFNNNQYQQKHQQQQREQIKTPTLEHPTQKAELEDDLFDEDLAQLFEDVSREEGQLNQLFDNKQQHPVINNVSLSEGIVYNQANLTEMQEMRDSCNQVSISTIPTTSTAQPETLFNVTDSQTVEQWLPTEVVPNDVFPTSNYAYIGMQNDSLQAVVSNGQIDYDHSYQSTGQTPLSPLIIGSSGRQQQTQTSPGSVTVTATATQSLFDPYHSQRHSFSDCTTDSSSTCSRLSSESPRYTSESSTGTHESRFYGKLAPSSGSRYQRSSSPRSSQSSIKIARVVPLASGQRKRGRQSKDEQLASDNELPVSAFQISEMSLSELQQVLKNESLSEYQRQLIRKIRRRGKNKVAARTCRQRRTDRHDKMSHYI

[20] = cells; type: functional, cell-based
[21] = system: BJ; assay: cells; type: functional, cell-based; settings: Homo sapiens
[22] = Luminescence-based dose response cell-based high throughput screening assay for cytotoxic compounds using the IEC-6 intestinal epithelial cell line. [Related pubchem assays: 1858 (Summary AID.), 1825 (Counterscreen.), 1907 (Confirmation screen.)]; type: functional
[23] = cells; type: functional, cell-based; remark: listed apart in the source
[24] = cytotoxicity toward DRD oncogenic fibroblasts, dose response, cell-based, non-viral oncogenic, luminescence (AID 1934); type: functional; settings: Homo sapiens
[25] = cells; type: functional, cell-based; remark: listed apart in the source
[26] = molecular target: T3, Nuclear receptor subfamily 0 group B member 1 (Homo sapiens, UniProt P51843); type: functional, cell-based;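 note: HEK293T cells transfected with SF-1 and DAX-1 plus StAR promoter luciferase reporter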
T3 sequence (P51843 whole entry): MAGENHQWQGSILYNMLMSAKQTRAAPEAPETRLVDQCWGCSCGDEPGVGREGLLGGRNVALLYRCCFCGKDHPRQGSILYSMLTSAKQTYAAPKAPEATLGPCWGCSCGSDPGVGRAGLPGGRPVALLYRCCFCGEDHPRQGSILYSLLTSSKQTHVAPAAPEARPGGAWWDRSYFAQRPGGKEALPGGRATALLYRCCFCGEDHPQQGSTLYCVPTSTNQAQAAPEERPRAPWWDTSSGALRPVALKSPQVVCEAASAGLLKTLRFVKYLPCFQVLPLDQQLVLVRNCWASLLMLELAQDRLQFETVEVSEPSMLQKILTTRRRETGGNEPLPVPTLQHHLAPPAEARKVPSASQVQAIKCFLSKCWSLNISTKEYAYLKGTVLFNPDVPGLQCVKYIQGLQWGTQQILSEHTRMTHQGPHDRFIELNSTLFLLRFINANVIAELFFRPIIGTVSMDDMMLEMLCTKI

[27] = Concentration-dependent survival of SW480 colon cancer line, luminescence detection with CellTiter-Glo, half-maximal inhibitory concentration (AID 1117338); type: functional
[28] = RKO cell viability reduction, dose response, CellTiter-Glo luminescence (AID 1117322); type: functional
[29] = cytotoxicity toward HCT116 cells – cell-based, CellTiter-Glo luminescence, IC50, dose response (AID 1117332); type: functional; settings: HCT-116
[30] = SNU-C1 cell viability reduction, dose response, CellTiter-Glo luminescence (AID 1117323); type: functional, cell-based
[31] = cytotoxicity toward Colo320 cells – cell-based, CellTiter-Glo luminescence, IC50, dose response (AID 1117334); type: functional; settings: COLO 320
[32] = cytotoxicity toward HT-29 cells – cell-based, CellTiter-Glo luminescence, IC50, dose response (AID 1117330); type: functional
[33] = CellTiter-Glo luminescent dose response of DLD-1 viability loss (AID 1117352); type: functional
[34] = molecular target: Cytochrome P450 2C9 (Homo sapiens, UniProt P11712); settings: Potency
Sequence of Cytochrome P450 2C9 (P11712 whole entry): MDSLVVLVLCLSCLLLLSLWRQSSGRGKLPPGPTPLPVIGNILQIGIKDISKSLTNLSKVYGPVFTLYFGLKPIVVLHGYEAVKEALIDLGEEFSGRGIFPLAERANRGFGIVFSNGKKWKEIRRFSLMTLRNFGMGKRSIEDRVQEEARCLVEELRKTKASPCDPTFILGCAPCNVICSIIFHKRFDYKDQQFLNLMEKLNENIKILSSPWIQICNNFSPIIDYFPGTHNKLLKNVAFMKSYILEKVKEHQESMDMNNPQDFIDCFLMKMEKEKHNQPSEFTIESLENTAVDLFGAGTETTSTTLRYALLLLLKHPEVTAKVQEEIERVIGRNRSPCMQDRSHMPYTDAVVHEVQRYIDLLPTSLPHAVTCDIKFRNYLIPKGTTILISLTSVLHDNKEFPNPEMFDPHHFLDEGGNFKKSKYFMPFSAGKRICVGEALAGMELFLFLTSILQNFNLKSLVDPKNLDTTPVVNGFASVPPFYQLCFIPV

Q: Which IC50 [1] does the source give for `Cc1cccc(OCc2nnc(SCC(=O)NC3CCCC3)n2C)c1` here?
A: 4.79 µM (active)

Q: What about the IC50 [2] of the same compound?
A: 6.66 µM (active)

Q: For `Cc1cc(S(=O)(=O)N(Cc2ccccn2)Cc2ccco2)ccc1-n1cnnn1`, which IC50 [3] is on record?
A: > 100 µM (active)

Q: What does the source list for `Cc1ccc(CNC(=O)CCC2CCCN(Cc3cc4ccccc4o3)C2)o1` (centres undefined)?
A: EC50 [4]: < 0.1 µM (active); EC50 [5]: > 30 µM (not active); CC50 [6]: 33.8 µM (active); EC50 [7]: 0.222 µM (active)

Q: What does the source list for `C#CCn1/c(=N/C(=O)c2cccs2)sc2cccc(OC)c21`?
A: IC50 [8]: > 100 µM (not active); IC50 [9]: 24.9 µM (active); IC50 [10]: > 100 µM (inactive); IC50 [11]: > 100 µM (inactive)

Q: What does the source list for `O=C(Nc1ccccc1)O/N=C/c1ccc(F)cc1`?
A: EC50 [12]: 0.477 µM (active); EC50 [13]: < 0.1 µM (active); EC50 [14]: < 0.1 µM (active); EC50 [15]: 8.27 µM (active); EC50 [16]: 0.372 µM (active); EC50 [17]: 0.321 µM (active); AC50 [18]: 54.2 µM (active); IC50 [19]: > 100 µM (inactive)

Q: With `O=C(N/N=C/C(Br)=C\c1ccccc1)c1[nH]nc2c1CCC2` as the compound, how does the EC50 [20] read?
A: > 350 µM (not active)

Q: And the EC50 [21]?
A: 0.223 µM (inconclusive)

Q: What about the IC50 [22] of the same compound?
A: 0.183 µM (active)

Q: And the EC50 [23]?
A: 17.8 µM (active)

Q: And the EC50 [24]?
A: 0.3 µM (inconclusive)

Q: What about the IC50 [25] of the same compound?
A: > 67.5 µM (inactive)

Q: What about the IC50 [26] of the same compound?
A: > 0.834 µM (active)

Q: Which IC50 [27] does the source give for `CCc1cccc2c3c([nH]c12)C(CC)(CC(=O)O)OCC3` (centres undefined) [ETODOLAC] here?
A: > 20 µM (inactive)

Q: What about the IC50 [28] of the same compound?
A: > 20 µM (inactive)

Q: What about the IC50 [29] of the same compound?
A: > 20 µM (inactive)

Q: What about the IC50 [30] of the same compound?
A: > 20 µM (inactive)

Q: And the IC50 [31]?
A: > 20 µM (inactive)

Q: What about the IC50 [32] of the same compound?
A: > 20 µM (inactive)

Q: What about the IC50 [33] of the same compound?
A: > 20 µM (inactive)

Q: What about the AC50 [34] of the same compound?
A: 39.8 µM (inconclusive)
